# US6570010B2, “Inclusion compounds of vanillyl alcohol derivative in cyclodextrin and compositions containing the same” (Takasago International Corporation, priority 2000, dated 2003)
# Assay: Solubility in water of 20° C.
# Format: physicochemical
# Details: wt. %
# Source text: In this table, vanillyl-n-butyl ether will be abbreviated as VBE.
smiles,measurement,value
"CCCCOCc1ccc(O)c(OC)c1 [VBE, vanillyl-n-butyl ether]",Solubility of VBE in terms of concentration,<0.002%
